Reference: ChEMBL document CHEMBL1153239, “1-(3-Aryloxyaryl)benzimidazole sulfones are liver X receptor agonists” (Bioorg Med Chem Lett, 2010)

Test: AUC (0 to last) in C57 mouse at 10 mg/kg, po
Assay type: ADME, organism-based
Design: time 0 - last, dose 10 mg/kg, route oral
Conditions: plasma

Row | Compound | AUC(0-t) [ng·h/mL]
1 | CCS(=O)(=O)c1cccc(Oc2cccc(-n3c(C)nc4c(Cl)cccc43)c2)c1 | 1780
2 | Cc1nc2c(C(F)(F)F)cccc2n1-c1cccc(Oc2cccc(S(=O)(=O)C(C)C)c2)c1 | 1290
3 | Cc1nc2c(C(F)(F)F)cccc2n1-c1cccc(Oc2cccc(S(C)(=O)=O)c2)c1 | 12900
4 | Cc1nc2c(Cl)cccc2n1-c1cccc(Oc2cccc(S(C)(=O)=O)c2)c1 | 1500
5 | CS(=O)(=O)c1cccc(Oc2cccc(-n3cnc4c(C(F)(F)F)cccc43)c2)c1 | 12100
6 | CCS(=O)(=O)c1cccc(Oc2cccc(-n3c(C)nc4c(C(F)(F)F)cccc43)c2)c1 | 2940
7 | CCc1nc2c(C(F)(F)F)cccc2n1-c1cccc(Oc2cccc(S(C)(=O)=O)c2)c1 | 1780
8 | CS(=O)(=O)c1cccc(Oc2cccc(-n3c(C(F)(F)F)nc4c(C(F)(F)F)cccc43)c2)c1 | 14300
